test system: Plasmodium falciparum; experiment: Antimalarial activity against Plasmodium falciparum IMT K2 harboring Ppcrt M74I, N75E, K76T, A220S, Q271E, N326S mutant gene, Pmdr1 S1034C, N1042D mutant gene and Pfmrp H191Y and S437A mutant gene assessed as incorporation of [3H]hypoxanthine after 48 hrs by scintillation counter; type: functional, organism-based

| Compound | IC50 [µM] |
| --- | --- |
| CC(C)c1c(C(=O)Nc2ccccc2)c(-c2ccccc2)c(-c2ccc(F)cc2)n1CC[C@@H](O)C[C@@H](O)CC(=O)O [ATORVASTATIN] | 8.6 |

test system: Plasmodium falciparum; experiment: Antimalarial activity against Plasmodium falciparum IMT 8425 harboring Ppcrt I371R mutant gene and Pfnhe-1 ms4760 microsatellite mutant assessed as incorporation of [3H]hypoxanthine after 48 hrs by scintillation counter; type: functional, organism-based

| Compound | IC50 [µM] |
| --- | --- |
| CC(C)c1c(C(=O)Nc2ccccc2)c(-c2ccccc2)c(-c2ccc(F)cc2)n1CC[C@@H](O)C[C@@H](O)CC(=O)O [ATORVASTATIN] | 9.7 |

test system: Plasmodium falciparum; experiment: Antimalarial activity against Plasmodium falciparum PA assessed as incorporation of [3H]hypoxanthine after 48 hrs by scintillation counter; type: functional, organism-based

| Compound | IC50 [nM] |
| --- | --- |
| CC(C)c1c(C(=O)Nc2ccccc2)c(-c2ccccc2)c(-c2ccc(F)cc2)n1CC[C@@H](O)C[C@@H](O)CC(=O)O [ATORVASTATIN] | 2500 |

test system: Plasmodium falciparum; experiment: Antimalarial activity against Plasmodium falciparum IMT 31 assessed as incorporation of [3H]hypoxanthine after 48 hrs by scintillation counter; type: functional, organism-based

| Compound | IC50 [nM] |
| --- | --- |
| CC(C)c1c(C(=O)Nc2ccccc2)c(-c2ccccc2)c(-c2ccc(F)cc2)n1CC[C@@H](O)C[C@@H](O)CC(=O)O [ATORVASTATIN] | 2500 |

test system: Plasmodium falciparum; experiment: Antimalarial activity against Plasmodium falciparum IMT L1 harboring Ppcrt M74I, N75E, K76T, A220S, Q271E mutant gene, Pmdr1 N86Y mutant gene and Pfmrp H191Y and S437A mutant gene assessed as incorporation of [3H]hypoxanthine after 48 hrs by scintillation counter; type: functional, organism-based

| Compound | IC50 [µM] |
| --- | --- |
| CC(C)c1c(C(=O)Nc2ccccc2)c(-c2ccccc2)c(-c2ccc(F)cc2)n1CC[C@@H](O)C[C@@H](O)CC(=O)O [ATORVASTATIN] | 8.2 |

test system: Plasmodium falciparum; experiment: Antimalarial activity against Plasmodium falciparum IMT 16332 assessed as incorporation of [3H]hypoxanthine after 48 hrs by scintillation counter; type: functional, organism-based

| Compound | IC50 [nM] |
| --- | --- |
| CC(C)c1c(C(=O)Nc2ccccc2)c(-c2ccccc2)c(-c2ccc(F)cc2)n1CC[C@@H](O)C[C@@H](O)CC(=O)O [ATORVASTATIN] | 2500 |

test system: Plasmodium falciparum; experiment: Antimalarial activity against Plasmodium falciparum IMT 10500 assessed as incorporation of [3H]hypoxanthine after 48 hrs by scintillation counter; type: functional, organism-based

| Compound | IC50 [nM] |
| --- | --- |
| CC(C)c1c(C(=O)Nc2ccccc2)c(-c2ccccc2)c(-c2ccc(F)cc2)n1CC[C@@H](O)C[C@@H](O)CC(=O)O [ATORVASTATIN] | 2500 |

test system: Plasmodium falciparum; experiment: Antimalarial activity against Plasmodium falciparum IMT K4 harboring Ppcrt M74I, N75E, K76T, A220S, Q271E, N326S mutant gene, Pmdr1 S1034C, N1042D mutant gene and Pfmrp H191Y and S437A mutant gene assessed as incorporation of [3H]hypoxanthine after 48 hrs by scintillation counter; type: functional, organism-based

| Compound | IC50 [µM] |
| --- | --- |
| CC(C)c1c(C(=O)Nc2ccccc2)c(-c2ccccc2)c(-c2ccc(F)cc2)n1CC[C@@H](O)C[C@@H](O)CC(=O)O [ATORVASTATIN] | 6.9 |

test system: Plasmodium falciparum; experiment: Antimalarial activity against Plasmodium falciparum IMT K4 assessed as incorporation of [3H]hypoxanthine after 48 hrs by scintillation counter; type: functional, organism-based

| Compound | IC50 [nM] |
| --- | --- |
| CC(C)c1c(C(=O)Nc2ccccc2)c(-c2ccccc2)c(-c2ccc(F)cc2)n1CC[C@@H](O)C[C@@H](O)CC(=O)O [ATORVASTATIN] | 2500 |

test system: Plasmodium falciparum; experiment: Antimalarial activity against Plasmodium falciparum IMT 10336 harboring Pfcrt Q271E mutant gene and Ppcrt I371R mutant gene assessed as incorporation of [3H]hypoxanthine after 48 hrs by scintillation counter; type: functional, organism-based

| Compound | IC50 [µM] |
| --- | --- |
| CC(C)c1c(C(=O)Nc2ccccc2)c(-c2ccccc2)c(-c2ccc(F)cc2)n1CC[C@@H](O)C[C@@H](O)CC(=O)O [ATORVASTATIN] | 6.9 |

test system: Plasmodium falciparum; experiment: Antimalarial activity against Plasmodium falciparum IMT 10500 harboring Pfcrt Q271E mutant gene and Ppcrt I371R mutant gene and Pfnhe-1 ms4760 microsatellite mutant assessed as incorporation of [3H]hypoxanthine after 48 hrs by scintillation counter; type: functional, organism-based

| Compound | IC50 [µM] |
| --- | --- |
| CC(C)c1c(C(=O)Nc2ccccc2)c(-c2ccccc2)c(-c2ccc(F)cc2)n1CC[C@@H](O)C[C@@H](O)CC(=O)O [ATORVASTATIN] | 6.7 |

test system: Plasmodium falciparum; experiment: Antimalarial activity against Plasmodium falciparum FCM29 harboring Ppcrt M74I, N75E, K76T, A220S, Q271E, N326S and I356T mutant gene, Pmdr1 N86Y mutant gene and Pfmrp H191Y and S437A mutant gene assessed as incorporation of [3H]hypoxanthine after 48 hrs by scintillation counter; type: functional, organism-based

| Compound | IC50 [µM] |
| --- | --- |
| CC(C)c1c(C(=O)Nc2ccccc2)c(-c2ccccc2)c(-c2ccc(F)cc2)n1CC[C@@H](O)C[C@@H](O)CC(=O)O [ATORVASTATIN] | 5.9 |

test system: Plasmodium falciparum; experiment: Antimalarial activity against Plasmodium falciparum 106/1 harboring Ppcrt M74I, N75E, K76T, A220S, Q271E, N326S and I356T mutant gene, Pmdr1 N86Y mutant gene and Pfmrp H191Y and S437A mutant gene assessed as incorporation of [3H]hypoxanthine after 48 hrs by scintillation counter; type: functional, organism-based

| Compound | IC50 [µM] |
| --- | --- |
| CC(C)c1c(C(=O)Nc2ccccc2)c(-c2ccccc2)c(-c2ccc(F)cc2)n1CC[C@@H](O)C[C@@H](O)CC(=O)O [ATORVASTATIN] | 8 |

test system: Plasmodium falciparum; experiment: Antimalarial activity against Plasmodium falciparum IMT 16332 harboring Ppcrt M74I, N75E, K76T, A220S, Q271E mutant gene, Pmdr1 N86Y mutant gene assessed as incorporation of [3H]hypoxanthine after 48 hrs by scintillation counter; type: functional, organism-based

| Compound | IC50 [µM] |
| --- | --- |
| CC(C)c1c(C(=O)Nc2ccccc2)c(-c2ccccc2)c(-c2ccc(F)cc2)n1CC[C@@H](O)C[C@@H](O)CC(=O)O [ATORVASTATIN] | 6 |

test system: Plasmodium falciparum; experiment: Antimalarial activity against Plasmodium falciparum W2 assessed as incorporation of [3H]hypoxanthine after 48 hrs by scintillation counter; type: functional, organism-based

| Compound | IC50 [nM] |
| --- | --- |
| CC(C)c1c(C(=O)Nc2ccccc2)c(-c2ccccc2)c(-c2ccc(F)cc2)n1CC[C@@H](O)C[C@@H](O)CC(=O)O [ATORVASTATIN] | 2500 |

test system: Plasmodium falciparum; experiment: Antimalarial activity against Plasmodium falciparum D6 assessed as incorporation of [3H]hypoxanthine after 48 hrs by scintillation counter; type: functional, organism-based

| Compound | IC50 [nM] |
| --- | --- |
| CC(C)c1c(C(=O)Nc2ccccc2)c(-c2ccccc2)c(-c2ccc(F)cc2)n1CC[C@@H](O)C[C@@H](O)CC(=O)O [ATORVASTATIN] | 2500 |

test system: Plasmodium falciparum; experiment: Antimalarial activity against Plasmodium falciparum IMT K14 assessed as incorporation of [3H]hypoxanthine after 48 hrs by scintillation counter; type: functional, organism-based

| Compound | IC50 [nM] |
| --- | --- |
| CC(C)c1c(C(=O)Nc2ccccc2)c(-c2ccccc2)c(-c2ccc(F)cc2)n1CC[C@@H](O)C[C@@H](O)CC(=O)O [ATORVASTATIN] | 2500 |

test system: Plasmodium falciparum; experiment: Antimalarial activity against Plasmodium falciparum IMT 9881 harboring Ppcrt I371R mutant gene assessed as incorporation of [3H]hypoxanthine after 48 hrs by scintillation counter; type: functional, organism-based

| Compound | IC50 [µM] |
| --- | --- |
| CC(C)c1c(C(=O)Nc2ccccc2)c(-c2ccccc2)c(-c2ccc(F)cc2)n1CC[C@@H](O)C[C@@H](O)CC(=O)O [ATORVASTATIN] | 7.3 |

test system: Plasmodium falciparum; experiment: Antimalarial activity against Plasmodium falciparum IMT Vol assessed as incorporation of [3H]hypoxanthine after 48 hrs by scintillation counter; type: functional, organism-based

| Compound | IC50 [nM] |
| --- | --- |
| CC(C)c1c(C(=O)Nc2ccccc2)c(-c2ccccc2)c(-c2ccc(F)cc2)n1CC[C@@H](O)C[C@@H](O)CC(=O)O [ATORVASTATIN] | 2500 |

test system: Plasmodium falciparum; experiment: Antimalarial activity against Plasmodium falciparum W2 harboring Ppcrt M74I, N75E, K76T, A220S, Q271E, N326S and I356T mutant gene, Pmdr1 N86Y mutant gene and Pfmrp H191Y and S437A mutant gene assessed as incorporation of [[3H]hypoxanthine after 48 hrs by scintillation counter; type: functional, organism-based

| Compound | IC50 [µM] |
| --- | --- |
| CC(C)c1c(C(=O)Nc2ccccc2)c(-c2ccccc2)c(-c2ccc(F)cc2)n1CC[C@@H](O)C[C@@H](O)CC(=O)O [ATORVASTATIN] | 5.9 |

test system: Plasmodium falciparum; experiment: Antimalarial activity against Plasmodium falciparum IMT K2 assessed as incorporation of [3H]hypoxanthine after 48 hrs by scintillation counter; type: functional, organism-based

| Compound | IC50 [nM] |
| --- | --- |
| CC(C)c1c(C(=O)Nc2ccccc2)c(-c2ccccc2)c(-c2ccc(F)cc2)n1CC[C@@H](O)C[C@@H](O)CC(=O)O [ATORVASTATIN] | 2500 |

test system: Plasmodium falciparum; experiment: Antimalarial activity against Plasmodium falciparum IMT Guy harboring Ppcrt K76T, A220S, N326D and I371R mutant gene, Pmdr1 T184FN, 1042D and D1246Y, mutant gene and Pfmrp H191Y and S437A mutant gene and Pfnhe-1 ms4760 microsatellite mutant assessed as incorporation of [3H]hypoxanthine after 48 hrs by scintillation counter; type: functional, organism-based

| Compound | IC50 [µM] |
| --- | --- |
| CC(C)c1c(C(=O)Nc2ccccc2)c(-c2ccccc2)c(-c2ccc(F)cc2)n1CC[C@@H](O)C[C@@H](O)CC(=O)O [ATORVASTATIN] | 7.1 |
